# Source: patent publication US9499511B2, “N-substituted hydroxylamine derivatives with carbon-based leaving groups” (The Johns Hopkins University, priority 2011, dated 2016)
# Read-outs that look alike come from different tables or passages of the source.
# Assays:
# [1] = Decomposition kinetics monitored by UV-Vis spectroscopy; format: physicochemical; conditions: PBS, pH 7.4, Condition A: pH 7.4, 37° C., 0.1M PBS, 100 μL DTPA, air (UV/Vis)
# [2] = pKa of carbanion byproduct (concentration of b / b-H+ as a function of pH, UV-Vis); format: physicochemical
# Text: FIG. 2A and FIG. 2B show a graph plotting the concentration of 4b, 4b-H^+ (FIG. 2A) and 6b, 6b-H^+ (FIG. 2B) as a function of pH. In FIG. 2A, the squares represent 4b-H^+ (λmax=298 nm), and the circles represent carbanion 4b (λmax=261 nm). In FIG. 2B, the squares represent 6b-H^+ (λmax=270 nm), where the last three data points were omitted due to spectral overlap, and the circles represent carbanion 6b (λmax=253 nm).
# NMR spectra were obtained on a Bruker Avance 400 MHz FT-NMR spectrometer. All chemical shifts are reported in parts per million (ppm) relative to residual CHCl3 (7.26 ppm for ^1H, 77.23 ppm for ^13C), residual DMSO (2.50 ppm for ^1H, 39.52 for ^13C), or residual H2O (4.8 ppm for ^1H). High-resolution mass spectra were obtained on a VG Analytical VG70SE magnetic sector mass spectrometer operating in fast atom bombardment (FAB) mode. Ultraviolet-Visible (UV-Vis) absorption spectra were obtained using a Hewlett Packard 8453 diode array spectrometer. Phosphate-buffered saline (PBS) solutions (0.1 M) were prepared with 140 mM NaCl and 3 mM KCl, with 100 μM diethylenetriaminepentaacetic acid (DTPA), adjusted to pH 7.4. Buffered solutions (0.1 M) for UV-Vis experiments were prepared from HCl/NaCl (pH 1.7), AcOH/AcONa (pH 3.0, 3.5, 4.0, 4.5, 5.0, 5.5), or NaPO3H2/Na2PO3H (pH 6.0, 6.5, 7.0, 8.0, 9.0, 9.5, 9.8, 10.0, 10.5, 10.6).
# [3] = N2O headspace analysis (GC) of HNO production, relative to Angeli's salt; format: physicochemical
# Description: Nitrous oxide is produced via the dimerization and dehydration of HNO, and is the most common marker for HNO production (Fukuto, J. M. et al., Chem. Res. Toxicol. 2005, 18, 790-801).
# Gas chromatography was performed on a Varian CP-3800 instrument equipped with a 1041 manual injector, electron capture detector, and a 25 m 5 Å molecular sieve capillary column. Grade 5.0 nitrogen was used as both the carrier (8 mL/min) and the make-up (22 mL/min) gas. The injector oven and the detector oven were kept at 200° C. and 300° C., respectively. All nitrous oxide analyses were performed with the column oven held constant at 150° C. All gas injections were made using a 100 μL gastight syringe with a sample-lock. Samples were prepared in 15 mL amber headspace vials with volumes pre-measured for sample uniformity (actual vial volume ranges from 15.19-15.20 mL). Vials were charged with 5 mL of PBS buffer containing DTPA, purged with argon, and sealed with a rubber septum. The vials were equilibrated for at least 10 minutes at 37° C. in a dry block heater. A 10 mM stock solution of Angeli's salt (AS) was prepared in 10 mM sodium hydroxide, and HNO donors 1a-4a, 6a (10 mM) were prepared in acetonitrile or methanol and used immediately after preparation. From these stock solutions, 50 μL was introduced into individual thermally-equilibrated headspace vials using a gastight syringe, yielding final substrate concentrations of 0.1 mM. Substrates were then incubated long enough to ensure complete decomposition and equilibration of N2O with the headspace. The headspace (60 μL) was then sampled and injected five successive times using a gastight syringe with a sample lock. This was repeated for n≧3 vials per donor. The nitrous oxide yield was averaged and reported relative to the standard, Angeli's salt. For chemical trapping of HNO, glutathione (100 μL of 10 mM in PBS) was added prior to HNO donor addition to give a final glutathione concentration of 0.2 mM, and headspace sampling for N2O was analogously performed as stated above.
# Sprague-Dawley rats = assay: Acute cardiovascular effects, pressure-volume (PV) loop analysis in anesthetized rats; format: in vivo, rat; conditions: IV infusion 100 μg/kg/min, 5 rats
# Description: The acute cardiovascular effects of compounds 4a and 6a, when administered intravenously to Sprague-Dawley rats at an infusion rate of 100 μg/kg/min, were examined by means of pressure-volume (PV) curve (loops) analysis. PV families/relationships were generated via pre-load variation and hemodynamic indices were compared to baseline values. Each test article was administered to 5 rats.
# Rats were intraperitoneally (IP) anesthetized to effect with pentobarbital (˜50 mg/kg), shaved and positioned in dorsal recumbence, endotracheally intubated and ventilated […], ˜2.5 mL tidal volume with 95% O2/5% CO2) with an adjustable small animal ventilator (Harvard Apparatus). Anesthesia was maintained with a continuous pentobarbital infusion (to effect, ˜3 to 5 mg/kg/h, IV) until completion of the experiment via an indwelling catheter placed in a femoral vein. Subsequently, transthoracic needle electrodes forming a single-lead ECG were placed. For LV mechano-energetic evaluation, the right carotid artery was isolated, dissected free from the surrounding tissue, and cannulated with a 2F high-fidelity conductance/micromanometer catheter (Millar Instruments). This catheter was advanced retrograde across the aortic valve and into the LV chamber in order to simultaneously determine left-ventricular pressure and volume (via conductivity). […] Meanwhile, in order to record arterial pressures, a 2F high-fidelity micromanometer catheter (Millar Instruments) was inserted into a femoral artery and advanced towards the abdominal aorta. Finally, an in-dwelling catheter was placed into the jugular vein for administration of test article.
# Following collection of baseline hemodynamic data, infusion of test article was initiated at an infusion rate of 100 μg/kg/min; at 10 μL/min. Pressure-volume analyses were performed again approximately 30 min and 45 min after the initiation of the dose.
# The resulting left-ventricular pressure and volume data was analyzed offline (IOX/ECG Auto; EMKA Technologies) in order to generate relationships representing the contractile and energetic state of the myocardium. Systolic (SAP), diastolic (DAP), and mean (MAP) arterial pressures were collected. Left-ventricular mechanical and/or geometrical indices were obtained from the pressure (ESP, EDP, dP/dt max/min, time-constant of relaxation—tau [based on mono-exponential decay with non-zero asymptote]) and volume (ESV, EDV, SV) signal. In addition, the following measurements were derived from left-ventricular pressure-volume data (PV loops) generated during brief periods of preload reduction: • Pressure volume area (PVA) and stroke work (SW). • End-systolic (ESPVR) and end-diastolic (EDPVR) pressure volume relationships. • End systolic pressure and stroke volume relationship (Arterial Elastance, Ea).
# Data are presented as means with standard errors (mean±SEM) in Table 6.
# [4] = Decomposition kinetics monitored by UV-Vis spectroscopy; format: physicochemical
# Description: NMR spectra were obtained on a Bruker Avance 400 MHz FT-NMR spectrometer. […] High-resolution mass spectra were obtained on a VG Analytical VG70SE magnetic sector mass spectrometer operating in fast atom bombardment (FAB) mode. […] Phosphate-buffered saline (PBS) solutions (0.1 M) were prepared with 140 mM NaCl and 3 mM KCl, with 100 μM diethylenetriaminepentaacetic acid (DTPA), adjusted to pH 7.4.
compound,measurement,setting,value
"CO/N=C(\C)C1(NO)C(=O)N(C)N=C1C (centres unmarked) [Compound 7a, 4-(N-hydroxylamine)-4-(acetyl-O-methoxyoxime)-N-methyl-5-methyl-pyrazolone]",half-life,[1],23 min
"5-(acetyl-O-methoxyoxime)-N,N-dimethylbarbituric acid [Compound 4b]",pKa of byproduct,[2],ca. 4.2
"CO/N=C(\C)C1(NO)C(=O)N(c2ccccc2)N=C1C (centres unmarked) [Compound 6a, 4-(N-hydroxylamine)-4-(acetyl-O-methoxyoxime)-N-phenyl-5-methyl-pyrazolone]",HNO / N2O production (in words),[3]; decomposition at pH 7.4,efficiently produces HNO
same,% HNO,"[3]; donor 0.1 mM, 37° C., PBS pH 7.4, yield relative to Angeli's salt by N2O headspace analysis, SEM ±5%, n = 3",110%
same,half-life,[1],9.5 min
same,Mean Blood Pressure,Sprague-Dawley rats; baseline 124 (4a) / 138 (6a),111 mmHg
same,Stroke Volume,"Sprague-Dawley rats; mean, baseline 1 (4a) / 2.2 (6a)",2.4 relative volume units
same,End Diastolic Pressure Volume Relationship,"Sprague-Dawley rats; mean, baseline 1.7 (4a) / 1.8 (6a)",1.5
same,End Diastolic Pressure,"Sprague-Dawley rats; mean, baseline 4.7 (4a) / 4.4 (6a)",3.6 mmHg
same,Tau,"Sprague-Dawley rats; mean, baseline 8.5 (4a) / 8.7 (6a)",8.6 ms
same,Arterial Elastance,"Sprague-Dawley rats; mean, baseline 9.2 (4a) / 7.4 (6a)",5.7
same,End Diastolic Volume,"Sprague-Dawley rats; mean, baseline 14.6 (4a) / 19.2 (6a)",20 relative volume units
same,End Systolic Pressure Volume Relationship,"Sprague-Dawley rats; mean, baseline 28.1 (4a) / 23.7 (6a)",31
same,Pre-Load Recruitable Stroke Work,"Sprague-Dawley rats; mean, baseline 37.6 (4a) / 42.8 (6a)",58.2
same,Diastolic Blood Pressure,"Sprague-Dawley rats; mean, baseline 109 (4a) / 121 (6a)",97 mmHg
same,Stroke Work,"Sprague-Dawley rats; mean, baseline 112 (4a) / 227 (6a)",185 relative volume units × mmHg
same,End Systolic Pressure,"Sprague-Dawley rats; mean, baseline 134 (4a) / 141 (6a)",113 mmHg
same,Systolic Blood Pressure,"Sprague-Dawley rats; mean, baseline 147 (4a) / 160 (6a)",130 mmHg
same,Pressure Volume Area,"Sprague-Dawley rats; mean, baseline 343 (4a) / 590 (6a)",318
same,Heart Rate,"Sprague-Dawley rats; mean, baseline 365 (4a) / 340 (6a)","332 bp, m"
same,Left Ventricular +dP/dt,"Sprague-Dawley rats; mean, baseline 6392 (4a) / 7689 (6a)",6044 mmHg/s
same,Left Ventricular −dP/dt,"Sprague-Dawley rats; mean, baseline −7585 (4a) / −8257 (6a)",−6549 mmHg/s
same,half-life,"[4]; AcOH/AcONa buffer, pH 4, pH 4.0, room temperature, read-out: half-life (converted)",~1500 min
same,half-life,"[4]; PBS, pH 7.4, footnote c not given, pH 7.4, 37° C., read-out: t1/2",9.5 min
same,half-life,"[4]; PBS, pH 7.4, pH 7.4 and 37° C., read-out: half-life (converted)",~10 min
same,pH near which the decomposition rate sharply increases,"[4]; decomposition rate as a function of pH at 25° C., UV-Vis",~10
